# Laboratory results published in BigSolDB 2.1.
smiles,measurement,setting,value
O=C1c2ccccc2-c2ccc(Br)cc21,solubility (mole fraction),"in 1,4-dioxane, 283.15 K",0.0136
same,solubility (mole fraction),"in 1,4-dioxane, 288.15 K",0.0167
same,solubility (mole fraction),"in 1,4-dioxane, 293.15 K",0.0199
same,solubility (mole fraction),"in 1,4-dioxane, 298.15 K",0.0241
same,solubility (mole fraction),"in 1,4-dioxane, 303.15 K",0.0284
same,solubility (mole fraction),"in 1,4-dioxane, 308.15 K",0.0334
same,solubility (mole fraction),"in 1,4-dioxane, 313.15 K",0.0391
same,solubility (mole fraction),"in 1,4-dioxane, 318.15 K",0.0455
same,solubility (mole fraction),"in 1,4-dioxane, 323.15 K",0.0527
same,solubility (mole fraction),"in acetonitrile, 278.15 K",0.000793
same,solubility (mole fraction),"in acetonitrile, 283.15 K",0.001
same,solubility (mole fraction),"in acetonitrile, 288.15 K",0.00122
same,solubility (mole fraction),"in acetonitrile, 293.15 K",0.00152
same,solubility (mole fraction),"in acetonitrile, 298.15 K",0.00188
same,solubility (mole fraction),"in acetonitrile, 303.15 K",0.00227
same,solubility (mole fraction),"in acetonitrile, 308.15 K",0.00273
same,solubility (mole fraction),"in acetonitrile, 313.15 K",0.00327
same,solubility (mole fraction),"in acetonitrile, 318.15 K",0.00389
same,solubility (mole fraction),"in acetonitrile, 323.15 K",0.0046
same,solubility (mole fraction),"in ethanol, 278.15 K",0.000435
same,solubility (mole fraction),"in ethanol, 283.15 K",0.000546
same,solubility (mole fraction),"in ethanol, 288.15 K",0.000674
same,solubility (mole fraction),"in ethanol, 293.15 K",0.000831
same,solubility (mole fraction),"in ethanol, 298.15 K",0.00101
same,solubility (mole fraction),"in ethanol, 303.15 K",0.00123
same,solubility (mole fraction),"in ethanol, 308.15 K",0.00146
same,solubility (mole fraction),"in ethanol, 313.15 K",0.00174
same,solubility (mole fraction),"in ethanol, 318.15 K",0.00205
same,solubility (mole fraction),"in ethanol, 323.15 K",0.00239
same,solubility (mole fraction),"in ethyl acetate, 278.15 K",0.00515
same,solubility (mole fraction),"in ethyl acetate, 283.15 K",0.00603
same,solubility (mole fraction),"in ethyl acetate, 288.15 K",0.00732
same,solubility (mole fraction),"in ethyl acetate, 293.15 K",0.00865
same,solubility (mole fraction),"in ethyl acetate, 298.15 K",0.0102
same,solubility (mole fraction),"in ethyl acetate, 303.15 K",0.012
same,solubility (mole fraction),"in ethyl acetate, 308.15 K",0.0136
same,solubility (mole fraction),"in ethyl acetate, 313.15 K",0.016
same,solubility (mole fraction),"in ethyl acetate, 318.15 K",0.0183
same,solubility (mole fraction),"in ethyl acetate, 323.15 K",0.0212
same,solubility (mole fraction),"in isopropanol, 278.15 K",0.000365
same,solubility (mole fraction),"in isopropanol, 283.15 K",0.000477
same,solubility (mole fraction),"in isopropanol, 288.15 K",0.000604
same,solubility (mole fraction),"in isopropanol, 293.15 K",0.000765
same,solubility (mole fraction),"in isopropanol, 298.15 K",0.000969
same,solubility (mole fraction),"in isopropanol, 303.15 K",0.0012
same,solubility (mole fraction),"in isopropanol, 308.15 K",0.00148
same,solubility (mole fraction),"in isopropanol, 313.15 K",0.00183
same,solubility (mole fraction),"in isopropanol, 318.15 K",0.00224
same,solubility (mole fraction),"in isopropanol, 323.15 K",0.0027
same,solubility (mole fraction),"in methanol, 278.15 K",0.000214
same,solubility (mole fraction),"in methanol, 283.15 K",0.000265
same,solubility (mole fraction),"in methanol, 288.15 K",0.000329
same,solubility (mole fraction),"in methanol, 293.15 K",0.00042
same,solubility (mole fraction),"in methanol, 298.15 K",0.000529
same,solubility (mole fraction),"in methanol, 303.15 K",0.00066
same,solubility (mole fraction),"in methanol, 308.15 K",0.000828
same,solubility (mole fraction),"in methanol, 313.15 K",0.00102
same,solubility (mole fraction),"in methanol, 318.15 K",0.00127
same,solubility (mole fraction),"in methanol, 323.15 K",0.00157
same,solubility (mole fraction),"in methyl acetate, 278.15 K",0.00408
same,solubility (mole fraction),"in methyl acetate, 283.15 K",0.00517
same,solubility (mole fraction),"in methyl acetate, 288.15 K",0.00608
same,solubility (mole fraction),"in methyl acetate, 293.15 K",0.00738
same,solubility (mole fraction),"in methyl acetate, 298.15 K",0.00882
same,solubility (mole fraction),"in methyl acetate, 303.15 K",0.0105
same,solubility (mole fraction),"in methyl acetate, 308.15 K",0.0123
same,solubility (mole fraction),"in methyl acetate, 313.15 K",0.0144
same,solubility (mole fraction),"in methyl acetate, 318.15 K",0.0168
same,solubility (mole fraction),"in methyl acetate, 323.15 K",0.0193
same,solubility (mole fraction),"in n-butanol, 278.15 K",0.000924
same,solubility (mole fraction),"in n-butanol, 283.15 K",0.00119
same,solubility (mole fraction),"in n-butanol, 288.15 K",0.00148
same,solubility (mole fraction),"in n-butanol, 293.15 K",0.0018
same,solubility (mole fraction),"in n-butanol, 298.15 K",0.00221
same,solubility (mole fraction),"in n-butanol, 303.15 K",0.00268
same,solubility (mole fraction),"in n-butanol, 308.15 K",0.00328
same,solubility (mole fraction),"in n-butanol, 313.15 K",0.00393
same,solubility (mole fraction),"in n-butanol, 318.15 K",0.00466
same,solubility (mole fraction),"in n-butanol, 323.15 K",0.00553
same,solubility (mole fraction),"in n-butyl acetate, 278.15 K",0.00637
same,solubility (mole fraction),"in n-butyl acetate, 283.15 K",0.00757
same,solubility (mole fraction),"in n-butyl acetate, 288.15 K",0.00911
same,solubility (mole fraction),"in n-butyl acetate, 293.15 K",0.0113
same,solubility (mole fraction),"in n-butyl acetate, 298.15 K",0.0136
same,solubility (mole fraction),"in n-butyl acetate, 303.15 K",0.016
same,solubility (mole fraction),"in n-butyl acetate, 308.15 K",0.019
same,solubility (mole fraction),"in n-butyl acetate, 313.15 K",0.0221
same,solubility (mole fraction),"in n-butyl acetate, 318.15 K",0.0259
same,solubility (mole fraction),"in n-butyl acetate, 323.15 K",0.03
same,solubility (mole fraction),"in n-propanol, 278.15 K",0.0006
same,solubility (mole fraction),"in n-propanol, 283.15 K",0.000747
same,solubility (mole fraction),"in n-propanol, 288.15 K",0.000915
same,solubility (mole fraction),"in n-propanol, 293.15 K",0.00116
same,solubility (mole fraction),"in n-propanol, 298.15 K",0.00143
same,solubility (mole fraction),"in n-propanol, 303.15 K",0.00173
same,solubility (mole fraction),"in n-propanol, 308.15 K",0.00208
same,solubility (mole fraction),"in n-propanol, 313.15 K",0.0025
same,solubility (mole fraction),"in n-propanol, 318.15 K",0.00297
same,solubility (mole fraction),"in n-propanol, 323.15 K",0.0035
